Earlier results on three compounds are cited in US7838081B2, “Liquor that avoids the apparition of stains produced by fungi in lignocellulosic materials such as wood” (priority 2005, dated 2010).

For the compound `Oc1c(Br)cc(Br)cc1Br` [2,4,6 Tribromophenol], in the data set on rat, the “LD50 acute oral rat” value was over 5.000 mg/kg. For the same compound, in the data set on rabbit, the “LD50 acute termal rabbit” value is on record as over 8.000 mg/kg. The “Results against stains of the wood (in words)” value with stains of the wood was “good results”.

`[Cu+2].[O-]c1cccc2cccnc12.[O-]c1cccc2cccnc12` [Copper 8 oxiquinolinate (PQ-8), Copper 8 oxiquinolinate]: the “LD50 acute oral rat” value in the data set with rat is 3.900 to 4.700 mg/kg. The “LD50 acute termal rabbit” value in the data set on rabbit is recorded as over 2.000 mg/kg.

With `Oc1c(Cl)c(Cl)c(Cl)c(Cl)c1Cl` [Pentachlorophenol], the “Results against stains of the wood (in words)” value in the data set with stains of the wood was “good results”.
